The experiment addresses human orexin type 2 receptor (hOX2R) (Homo sapiens (Human), UniProt O43614). The experiment in a line: Measurement of orexin type 2 receptor agonist activity (Experimental Example 2-1, FLIPR TETRA, intracellular Ca2+). To be noted: CHO dhfr- cells expressing hOX2R, FLIPR TETRA, Fluo-4AM; for Emax: read-out: Emax (%). The experiment is classed as cell-based.

The text below walks through data of patent publication US10287305B2, “Substituted piperidine compound and use thereof” (Takeda Pharmaceutical Company Limited, priority 2016, dated 2019).

What is called EC50 is the concentration at which the effect is half-maximal. Read a low EC50 as higher potency in that assay. As usually defined, the Emax is the maximal effect, on the per cent scale that the assay sets.

Sequence of human orexin type 2 receptor (hOX2R) (O43614 whole entry): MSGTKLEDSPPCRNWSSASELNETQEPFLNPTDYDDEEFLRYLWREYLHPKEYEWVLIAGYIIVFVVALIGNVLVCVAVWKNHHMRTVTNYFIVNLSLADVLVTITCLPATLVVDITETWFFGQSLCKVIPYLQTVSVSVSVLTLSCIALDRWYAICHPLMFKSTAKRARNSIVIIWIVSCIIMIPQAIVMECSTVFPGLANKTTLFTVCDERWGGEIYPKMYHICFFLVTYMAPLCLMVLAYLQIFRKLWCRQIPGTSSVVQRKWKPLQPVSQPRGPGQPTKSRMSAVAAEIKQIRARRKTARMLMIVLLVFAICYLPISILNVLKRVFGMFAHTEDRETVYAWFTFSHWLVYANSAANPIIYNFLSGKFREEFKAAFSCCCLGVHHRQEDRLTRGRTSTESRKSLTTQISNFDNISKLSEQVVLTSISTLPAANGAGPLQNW

Regarding `COc1cccc([C@H]2CC[C@@H](OC[C@@H]3NCCC[C@@H]3NS(C)(=O)=O)CC2)c1` (relative stereo) [Example 269, N-(cis-2-(((cis-4-(3-methoxyphenyl)cyclohexyl)oxy)methyl)piperidin-3-yl)methanesulfonamide], the half-maximal effective concentration (EC50) is 3000 nM and the Emax worked out at 95%.

In the case of `COC(=O)N1CCC[C@H](NS(C)(=O)=O)[C@@H]1CO[C@H]1CC[C@@H](c2cccc(OC)c2)CC1` (relative stereo) [Example 270, methyl cis-2-(((cis-4-(3-methoxyphenyl)cyclohexyl)oxy)methyl)-3-((methylsulfonyl)amino)piperidine-1-carboxylate], the EC50 was 80 nM and the maximum response (Emax) is 102%.

Regarding `COc1cccc([C@H]2CC[C@@H](OC[C@H]3[C@@H](NS(C)(=O)=O)CCCN3C(C)=O)CC2)c1` (relative stereo) [Example 271, N-(cis-1-acetyl-2-(((cis-4-(3-methoxyphenyl)cyclohexyl)oxy)methyl)piperidin-3-yl)methanesulfonamide], the half-maximal effective concentration (EC50) is 650 nM and the Emax is 104%.

Regarding `CCS(=O)(=O)N[C@H]1CCCN(C(=O)C2CC2)[C@H]1CO[C@H]1CC[C@@H](c2ccccc2)CC1` (relative stereo) [Example 279, N-(cis-1-(cyclopropylcarbonyl)-2-(((cis-4-phenylcyclohexyl)oxy)methyl)piperidin-3-yl)ethanesulfonamide], a half-maximal response (EC50) required 5.2 nM and the Emax turned out to be 97%.

Take `CCNC(=O)N1CCC[C@H](NS(C)(=O)=O)[C@@H]1CO[C@H]1C[C@H](Oc2ccccc2)C1` (relative stereo) [Example 281, cis-N-ethyl-3-((methylsulfonyl)amino)-2-(((trans-3-phenoxycyclobutyl)oxy)methyl)piperidine-1-carboxamide]: the EC50 came to 3300 nM and the Emax was found to be 81%.

Take `CC1(OC(=O)N2CCC[C@H](NS(C)(=O)=O)[C@@H]2COC2CCN(c3ncccn3)CC2)CC1` (relative stereo) [Example 284, 1-methylcyclopropyl cis-3-((methylsulfonyl)amino)-2-(((1-(pyrimidin-2-yl)piperidin-4-yl)oxy)methyl)piperidine-1-carboxylate]: the 50% effective concentration (EC50) came to 260 nM and the Emax was 95%.

For the compound `CS(=O)(=O)N[C@H]1CCCN(C(=O)OCC(F)(F)F)[C@H]1COC1CCN(c2ncccn2)CC1` (relative stereo) [Example 286, 2,2,2-trifluoroethyl cis-3-((methylsulfonyl)amino)-2-(((1-(pyrimidin-2-yl)piperidin-4-yl)oxy)methyl)piperidine-1-carboxylate], the midpoint of the response, the EC50, lay at 130 nM and the maximal response (Emax) amounted to 93%.

Regarding `CS(=O)(=O)N[C@H]1CCCN(C(=O)OC2CC2)[C@H]1COC1CCN(c2ncccn2)CC1` (relative stereo) [Example 287, cyclopropyl cis-3-((methylsulfonyl)amino)-2-(((1-(pyrimidin-2-yl)piperidin-4-yl)oxy)methyl)piperidine-1-carboxylate], the midpoint of the response, the EC50, lay at 150 nM and the maximal effect (Emax) was found to be 99%.

`CS(=O)(=O)N[C@H]1CCCN(C(=O)OC2CC2)[C@H]1COC1CCN(c2ccccc2F)CC1` (relative stereo) [Example 290, cyclopropyl cis-2-(((1-(2-fluorophenyl)piperidin-4-yl)oxy)methyl)-3-((methylsulfonyl)amino)piperidine-1-carboxylate]: the EC50 came out at 3300 nM and the Emax was 79%.

Regarding `CC(=O)N1CCC[C@H](NS(C)(=O)=O)[C@@H]1CO[C@H]1CC[C@@H](c2ccccc2OC(F)(F)F)CC1` (relative stereo) [Example 293, N-(cis-1-acetyl-2-(((cis-4-(2-(trifluoromethoxy)phenyl)cyclohexyl)oxy)methyl)piperidin-3-yl)methanesulfonamide], the midpoint of the response, the EC50, lay at 540 nM and the Emax was 78%.

In the case of `CS(=O)(=O)N[C@H]1CCCN(C(=O)C2CC2)[C@H]1CO[C@H]1CC[C@@H](c2ccccc2OC(F)(F)F)CC1` (relative stereo) [Example 294, N-(cis-1-(cyclopropylcarbonyl)-2-(((cis-4-(2-(trifluoromethoxy)phenyl)cyclohexyl)oxy)methyl)piperidin-3-yl)methanesulfonamide], the 50% effective concentration (EC50) came to 130 nM and the Emax was 95%.

On to `CCNC(=O)N1CCC[C@H](NS(C)(=O)=O)[C@@H]1CO[C@H]1CC[C@@H](c2ccccc2OC(F)(F)F)CC1` (relative stereo) [Example 295, cis-N-ethyl-3-((methylsulfonyl)amino)-2-(((cis-4-(2-(trifluoromethoxy)phenyl)cyclohexyl)oxy)methyl)piperidine-1-carboxamide], for which the response was half-maximal at 4.2 nM (EC50) and the Emax worked out at 93%.

Regarding `CC(=O)N1CCC[C@H](NS(C)(=O)=O)[C@@H]1CO[C@H]1CC[C@@H](c2cccc(OC(F)(F)F)c2)CC1` (relative stereo) [Example 297, N-(cis-1-acetyl-2-(((cis-4-(3-(trifluoromethoxy)phenyl)cyclohexyl)oxy)methyl)piperidin-3-yl)methanesulfonamide], the EC50 was 2100 nM and the Emax came to 76%.

For the compound `COC(=O)N1CCC[C@H](NS(C)(=O)=O)[C@@H]1CO[C@H]1CC[C@@H](c2cccc(OC(F)(F)F)c2)CC1` (relative stereo) [Example 298, methyl cis-3-((methylsulfonyl)amino)-2-(((cis-4-(3-(trifluoromethoxy)phenyl)cyclohexyl)oxy)methyl)piperidine-1-carboxylate], the Emax was 92%.

Consider `CS(=O)(=O)N[C@H]1CCCN(C(=O)C2CC2)[C@H]1CO[C@H]1CC[C@@H](c2cccc(OC(F)(F)F)c2)CC1` (relative stereo) [Example 299, N-(cis-1-(cyclopropylcarbonyl)-2-(((cis-4-(3-(trifluoromethoxy)phenyl)cyclohexyl)oxy)methyl)piperidin-3-yl)methanesulfonamide], for which the EC50 was found to be 95 nM and the Emax came out at 90%.

As to `CCNC(=O)N1CCC[C@H](NS(C)(=O)=O)[C@@H]1CO[C@H]1CC[C@@H](c2cccc(OC(F)(F)F)c2)CC1` (relative stereo) [Example 300, cis-N-ethyl-3-((methylsulfonyl)amino)-2-(((cis-4-(3-(trifluoromethoxy)phenyl)cyclohexyl)oxy)methyl)piperidine-1-carboxamide], the EC50 worked out at 9.7 nM and the Emax worked out at 94%.

As to `CCS(=O)(=O)N[C@H]1CCCN(C(=O)OC)[C@H]1CO[C@H]1CC[C@@H](c2ccccc2)CC1` (relative stereo) [Example 301, methyl cis-3-((ethylsulfonyl)amino)-2-(((cis-4-phenylcyclohexyl)oxy)methyl)-piperidine-1-carboxylate], the response was half-maximal at 21 nM (EC50) and the maximum response (Emax) stood at 105%.

Consider `CC(C)OC(=O)N1CCC[C@H](NS(C)(=O)=O)[C@@H]1CO[C@H]1C[C@@H](c2ccccc2)C1` (relative stereo) [Example 307, isopropyl cis-3-((methylsulfonyl)mino)-2-(((cis-3-phenylcyclobutyl)oxy)methyl)-piperidine-1-carboxylate], for which a half-maximal effect (EC50) was put at 1600 nM and the maximal response (Emax) amounted to 98%.

For the compound `CS(=O)(=O)N[C@H]1CCCN(C(=O)CC2CC2)[C@H]1CO[C@H]1C[C@@H](c2ccccc2)C1` (relative stereo) [Example 308, N-(cis-1-(cyclopropylacetyl)-2-(((cis-3-phenylcyclobutyl)oxy)methyl)-piperidin-3-yl)methanesulfonamide], the midpoint of the response, the EC50, lay at 590 nM and the Emax is 109%.

Regarding `CCc1ccccc1[C@H]1CC[C@@H](OC[C@@H]2NCCC[C@@H]2NS(C)(=O)=O)CC1` (relative stereo) [Example 311, N-(cis-2-(((cis-4-(2-ethylphenyl)cyclohexyl)oxy)methyl)-piperidin-3-yl)methanesulfonamide], the EC50 came out at 3200 nM and the Emax was 98%.

For the compound `CC(OC(=O)N1CCC[C@H](NS(C)(=O)=O)[C@@H]1COC1CCN(c2ncccn2)CC1)C(F)(F)F` (relative stereo) [Example 313, 1,1,1-trifluoropropan-2-yl cis-3-((methylsulfonyl)amino)-2-(((1-(pyrimidin-2-yl)piperidin-4-yl)oxy)methyl)piperidine-1-carboxylate], a half-maximal effect (EC50) was put at 270 nM and the Emax was 95%.

Take `CN(C)S(=O)(=O)N[C@H]1CCCN(C(=O)OCC(F)(F)F)[C@H]1COC1CCN(c2ncccn2)CC1` (relative stereo) [Example 315, 2,2,2-trifluoroethyl cis-3-((dimethylsulfamoyl)amino)-2-(((1-(pyrimidin-2-yl)piperidin-4-yl)oxy)methyl)piperidine-1-carboxylate]: the EC50 is 170 nM and the Emax worked out at 103%.

For the compound `CC(OC(=O)N1CCC[C@H](NS(=O)(=O)N(C)C)[C@@H]1COC1CCN(c2ncccn2)CC1)C(F)(F)F` (relative stereo) [Example 316, 1,1,1-trifluoropropan-2-yl cis-3-((dimethylsulfamoyl)amino)-2-(((1-(pyrimidin-2-yl)piperidin-4-yl)oxy)methyl)piperidine-1-carboxylate], the concentration giving a half-maximal response (EC50) was 330 nM and the Emax amounted to 91%.

As for `CC(=O)N1CCC[C@H](NS(C)(=O)=O)[C@@H]1CO[C@H]1CC[C@@H](c2c(C)cccc2C)CC1` (relative stereo) [Example 321, N-(cis-1-acetyl-2-(((cis-4-(2,6-dimethylphenyl)cyclohexyl)oxy)-methyl)piperidin-3-yl)methanesulfonamide], the EC50 amounted to 2200 nM and the Emax was 37%.

As for `COC(=O)N1CCC[C@H](NS(C)(=O)=O)[C@@H]1CO[C@H]1CC[C@@H](c2ccccc2C(F)F)CC1` (relative stereo) [Example 322, methyl cis-2-(((cis-4-(2-(difluoromethyl)phenyl)cyclohexyl)-oxy)methyl)-3-((methylsulfonyl)amino)piperidine-1-carboxylate], the “Emax (%)” value was 71%.
